Values of other authors in US11357716B2, “Sunscreen compositions” (Kobo Products, Inc., priority 2016, dated 2022).

What was measured:
[1] = Active: BEMT 4%
[2] = Active: BEMT 4%; remark: listed apart in the source

Structure (SMILES): CCCCC(CC)COc1ccc(-c2nc(-c3ccc(OC)cc3)nc(-c3ccc(OCC(CC)CCCC)cc3O)n2)c(O)c1 (centres unmarked) [BEMT, bis-ethylhexyloxyphenol methoxyphenyl triazine]
- UVA-PF in vivo [1]: in vivo = 7.6 ± 2.2
- SPF in vivo [2]: in vivo = 7.3 ± 1.2
